Paper PMC7036544, “Persistent candida arthritis successfully treated with micafungin instillation and surgery. A case report” (Medical Mycology Case Reports, 2019)
Starred links: 1 amine or outer side, 2 acyl side, 3 side chain; linkers in the order of their positions; H or OH if unused. Positions of bridges follow the written chain, without caps; N, C: chain ends. Non-standard residues stand in square brackets, D forms with d. Residues, ends and D or L forms follow the SMILES beside them. *: point of attachment. hTyr(3S-OH,4S-OH,3'-OSO3H) = N[C@H](C(=O)O)[C@H](O)[C@@H](O)c1ccc(O)c(OS(=O)(=O)O)c1; Orn(4R-OH,5R-OH) = O=C([C@H](C[C@@H](O)[C@@H](O)N[*:3])N[*:1])[*:2]; Pro(3S-OH,4S-Me) = C[C@H]1CN[C@H](C(=O)O)[C@H]1O; X1 = CCCCCOc1ccc(-c2cc(-c3ccc(C(=O)*)cc3)no2)cc1; Gln(3R-OH) = NC(=O)C[C@@H](O)[C@H](N)C(=O)O; Hyp = O=C(O)[C@@H]1C[C@@H](O)CN1

Legend:
[1] = Micafungin concentration in serum of the patient; assay type: in vivo, human; conditions: one patient, single measurement
Experimental: C. krusei has been identified with the use of CHROMagar™ with subsequent identification by Maldi-TOF, with database MALDI BDAL Database version 8.0. Micafungin concentrations were measured (laboratory of pharmacy, University Hospital Nijmegen, the Netherlands) in serum and joint fluid. The concentrations in […] and concentration in synovial fluid 24 hours after installation of 3mg of micafungin in the knee was 11mg/L at day 19, as well presented in Table 1. Reference concentrations of micafungin in serum derived from 2 studies in critically ill patients trough level 1.4–3.1 mg/L were described. […] Administration of 100mg once daily results in trough serum concentration levels of 2 mg-L [14]. In hematology patients reference concentrations after intravenous micafungin are available as well [15].

[2] = Micafungin concentration in joint (synovial) fluid of the patient after intra-articular instillation; assay type: in vivo, human; conditions: one patient; day 19; joint fluid aspirated 24 hours after intra-articular instillation of 3mg micafungin (trough); IA 3mg OD day 17 – day 24; single measurement
Experimental: C. krusei has been identified with the use of CHROMagar™ with subsequent identification by Maldi-TOF, with database MALDI BDAL Database version 8.0. Micafungin concentrations were measured (laboratory of pharmacy, University Hospital Nijmegen, the Netherlands) in serum and joint fluid. The concentrations in serum 12 hours after the administration of 100mg intravenously at day 13 and 16 of therapy were 4.5 and 1.5mg/L respectively and concentration in synovial fluid 24 hours after installation of 3mg of micafungin in the knee was 11mg/L at day 19, as well presented in Table 1. Reference concentrations of micafungin in serum derived from 2 studies in critically ill patients trough level 1.4–3.1 mg/L were described. […] Administration of 100mg once daily results in trough serum concentration levels of 2 mg-L [14]. In hematology patients reference concentrations after intravenous micafungin are available as well [15].

C. krusei = test: MIC of micafungin for the patient's C. krusei; assay type: cell-based, Candida krusei; conditions: isolate of the patient
[3] = Local toxicity in the knee joint after intra-articular micafungin; assay type: in vivo, human; conditions: one patient; intra-articular instillation, local concentration 11mg/l
C. krusei knee arthritis = test: Clinical outcome of C. krusei knee arthritis; assay type: in vivo, human; conditions: one patient; instillation of micafungin in the knee plus intravenous micafungin and arthroscopic debridement
Excerpt: A week later, the patient was readmitted for a second course of chemotherapy and amphotericin-B oral solution was given to prevent a new episode of translocation of C. krusei. During this hospital stay they hit their left knee on the side of the bed. Their knee continued to be painful and as a knee effusion was noted three days after injury, the orthopedic surgeon was consulted. On physical examination a large effusion of their left knee was found. The joint was not visibly red, but was warm on palpation. Their temperature was 38.4° Celsius. A plain knee radiograph of the knee was normal. An aspiration of the affected knee was performed and the joint fluid was sent for culture, this day was considered as day 0. Day 1 the joint aspiration grew C. krusei for which intravenous micafungin was restarted at a dose of 100mg twice daily. As the patient was deeply thrombopenic as well as neutropenic at that time, no arthroscopic drainage and lavage was performed but instead the knee was repeatedly drained by needle aspiration. On the day of the first needle aspiration of the knee and for the next 10 days, blood cultures were positive for C. krusei as well. Furthermore, repeated needle aspirations of the knee continued to grow C. krusei. An echocardiography at day 6 was normal. […]

[4] = critically ill patients, 2 studies; cited from earlier work
[5] = healthy subjects; cited from earlier work
[6] = reconstitution in NaCl 0.9%; cited from earlier work
Excerpt: Synovial fluid is a transudate of plasma, so dissolution of micafungin in synovial fluid will be likely. Moreover, diffusion from plasma to the synovial fluid will occur. Unfortunately, data about the extent of diffusion from plasma to the synovial fluid are not available. The possible side effects as well as the possible toxic effects on cartilage of micafungin when administered directly into a joint are unknown. However, we decided to administer micafungin through direct intra-articular instillation as, despite prolonged high-dose intravenous micafungin therapy, blood as well as synovial cul ...

Structure (SMILES): CCCCCOc1ccc(-c2cc(-c3ccc(C(=O)N[C@H]4C[C@@H](O)[C@@H](O)NC(=O)[C@@H]5[C@@H](O)[C@@H](C)CN5C(=O)[C@H]([C@H](O)CC(N)=O)NC(=O)[C@H]([C@H](O)[C@@H](O)c5ccc(O)c(OS(=O)(=O)O)c5)NC(=O)[C@@H]5C[C@@H](O)CN5C(=O)[C@H]([C@@H](C)O)NC4=O)cc3)no2)cc1 [micafungin] (X1-[Orn(4R-OH,5R-OH)]T[Hyp][hTyr(3S-OH,4S-OH,3'-OSO3H)][Gln(3R-OH)][Pro(3S-OH,4S-Me)]; lactam 1-C)
- Micafungin concentration in serum ([1]; 12 hours after administration of 100mg intravenously, day 16 of therapy): 1.5 mg/L
- Micafungin concentration (trough serum) ([1]; day 14, IV 100mg BID day 1 – day 15): 4.5 mg/L
- Micafungin concentration (trough serum) ([1]; day 17 (day of surgery), IV 200mg OD day 16 – day 32): 1.5 mg/L
- Micafungin concentration in synovial fluid (joint) [2]: 11 mg/L
- MIC of the C. krusei (C. krusei): 0.125 µg/mL
- Local toxicity of the joint [3]: no local toxicity was observed
- Clinical outcome (C. krusei knee arthritis): completely recovered
- Reference concentration of micafungin in serum, trough level [4]: 1.4 to 3.1 mg/L
- Half-life [5]: 15 h
- Volume of distribution [5]: 0,2 L/kg
- pH after reconstitution [6]: 5–7
